In patent US9834565B2, “Tricyclic heterocycles as bet protein inhibitors” (Incyte Corporation, priority 2014, dated 2017):

Tests used:
BRD4-BD1 = BRD4-BD1 (Homo sapiens (Human), UniProt O60885); test: BRD4-BD1 AlphaScreen assay; type: binding; details: H4Ac4 peptide, read-out: BRD4 BD-1 enzyme IC50
Experimental: (§1) BRD4-BD1 and BRD4-BD2 assays were conducted in white 384-well polystyrene plate in a final volume of 20 μL for BD1 and 40 μL for BD2. Inhibitors were first serially diluted in DMSO and added to the plate wells before the addition of other reaction components. […] After plate sealing, the plate was incubated in the dark at room temperature for 75 min. before reading on a PHERAstar FS plate reader (BMG Labtech). IC50 determination was performed by fitting the curve of percent control activity versus the log of the inhibitor concentration using the GraphPad Prism 5.0 software.

BRD4-BD2 = BRD4-BD2 (Homo sapiens (Human), UniProt O60885); test: BRD4-BD2 AlphaScreen assay; type: binding; details: H4Ac4 peptide, read-out: BRD4 BD-2 enzyme IC50
Experimental: as §1

Structure (SMILES) | IC50 (BRD4-BD1) [nM] | IC50 (BRD4-BD2) [nM]
CC(=O)N1C[C@@H](C)N(c2nc3ccc(-c4c(C)noc4C)c4c3n2[C@@H](c2ccccn2)CO4)[C@@H](C)C1 (atropisomer, axis not shown) [Example 2, (4S)-2-[(2R,6S)-4-Acetyl-2,6-dimethylpiperazin-1-yl]-7-(3,5-dimethylisoxazol-4-yl)-4-pyridin-2-yl-4,5-dihydroimidazo[1,5,4-de][1,4]benzoxazine] | < 25 | < 25
Cc1noc(C)c1-c1ccc2nc(N3CCN(C(=O)C(C)C)CC3)n3c2c1OC[C@@H]3c1ccccn1 [Example 1, (4S)-7-(3,5-Dimethylisoxazol-4-yl)-2-(4-isobutyrylpiperazin-1-yl)-4-pyridin-2-yl-4,5-dihydroimidazo[1,5,4-de][1,4]benzoxazine] | < 25 | < 25
CC(=O)N1CCN(c2nc3ccc(-c4c(C)noc4C)c4c3n2[C@@H](c2ccccn2)CO4)[C@@H](C)C1 [Example 3, (4S)-2-[(2S)-4-acetyl-2-methylpiperazin-1-yl]-7-(3,5-dimethylisoxazol-4-yl)-4-pyridin-2-yl-4,5-dihydroimidazo[1,5,4-de][1,4] benzoxazine] | 25 to 100 | < 25
CC(=O)N1CC2CC1CN2c1nc2ccc(-c3c(C)noc3C)c3c2n1[C@@H](c1ccccn1)CO3 (stereo partly drawn) [Example 4, (4S)-2-(5-acetyl-2,5-diazabicyclo[2.2.1]hept-2-yl)-7-(3,5-dimethylisoxazol-4-yl)-4-pyridin-2-yl-4,5-dihydroimidazo[1,5,4-de][1,4]benzoxazine] | < 25 | < 25
CC(=O)NC1(C)CCN(c2nc3ccc(-c4c(C)noc4C)c4c3n2[C@@H](c2ccccn2)CO4)CC1 [Example 5, N-{1-[(4S)-7-(3,5-dimethylisoxazol-4-yl)-4-pyridin-2-yl-4,5-dihydroimidazo[1,5,4-de][1,4]benzoxazin-2-yl]-4-methylpiperidin-4-yl}acetamide] | 25 to 100 | < 25
CCC(=O)N1CCN(c2nc3ccc(-c4c(C)noc4C)c4c3n2[C@@H](c2ccccn2)CO4)C[C@@H]1C [Example 8, (4S)-7-(3,5-dimethylisoxazol-4-yl)-2-[(3S)-3-methyl-4-propionylpiperazin-1-yl]-4-pyridin-2-yl-4,5-dihydroimidazo[1,5,4-de][1,4]benzoxazine] | < 25 | < 25
Cc1noc(C)c1-c1ccc2nc(N3CCN(C(=O)C(C)C)[C@@H](C)C3)n3c2c1OC[C@@H]3c1ccccn1 [Example 9, (4S)-7-(3,5-dimethylisoxazol-4-yl)-2-[(3S)-4-isobutyryl-3-methylpiperazin-1-yl]-4-pyridin-2-yl-4,5-dihydroimidazo[1,5,4-de][1,4]benzoxazine] | < 25 | < 25
CCCC(=O)NC1CCN(c2nc3ccc(-c4c(C)noc4C)c4c3n2[C@@H](c2ccccn2)CO4)CC1 [Example 10, N-{1-[(4S)-7-(3,5-dimethylisoxazol-4-yl)-4-pyridin-2-yl-4,5-dihydroimidazo[1,5,4-de][1,4]benzoxazin-2-yl]piperidin-4-yl}butanamide] | < 25 | < 25
Cc1noc(C)c1-c1ccc2nc(N3CCC(NC(=O)C(C)(C)C)CC3)n3c2c1OC[C@@H]3c1ccccn1 [Example 11, N-{1-[(4S)-7-(3,5-dimethylisoxazol-4-yl)-4-pyridin-2-yl-4,5-dihydroimidazo[1,5,4-de][1,4]benzoxazin-2-yl]piperidin-4-yl}-2,2-dimethylpropanamide] | < 25 | < 25
Cc1noc(C)c1-c1ccc2nc(N3CCC(NC(=O)C4CCC4)CC3)n3c2c1OC[C@@H]3c1ccccn1 [Example 13, N-{1-[(4S)-7-(3,5-dimethylisoxazol-4-yl)-4-pyridin-2-yl-4,5-dihydroimidazo[1,5,4-de][1,4]benzoxazin-2-yl]piperidin-4-yl}cyclobutanecarboxamide] | < 25 | < 25
CCC(=O)N(C)C1CCN(c2nc3ccc(-c4c(C)noc4C)c4c3n2[C@@H](c2ccccn2)CO4)CC1 [Example 15, N-{1-[(4S)-7-(3,5-dimethylisoxazol-4-yl)-4-pyridin-2-yl-4,5-dihydroimidazo[1,5,4-de][1,4]benzoxazin-2-yl]piperidin-4-yl}-N-methylpropanamide] | < 25 | < 25
CCCC(=O)N(C)C1CCN(c2nc3ccc(-c4c(C)noc4C)c4c3n2[C@@H](c2ccccn2)CO4)CC1 [Example 16, N-{1-[(4S)-7-(3,5-dimethylisoxazol-4-yl)-4-pyridin-2-yl-4,5-dihydroimidazo[1,5,4-de][1,4]benzoxazin-2-yl]piperidin-4-yl}-N-methylbutanamide] | < 25 | < 25
Cc1noc(C)c1-c1ccc2nc(N3CCC(N(C)C(=O)C(C)C)CC3)n3c2c1OC[C@@H]3c1ccccn1 [Example 17, N-{1-[(4S)-7-(3,5-dimethylisoxazol-4-yl)-4-pyridin-2-yl-4,5-dihydroimidazo[1,5,4-de][1,4]benzoxazin-2-yl]piperidin-4-yl}-N,2-dimethylpropanamide] | < 25 | < 25
Cc1noc(C)c1-c1ccc2nc(N3CCC(N(C)C(=O)C(C)(C)C)CC3)n3c2c1OC[C@@H]3c1ccccn1 [Example 18, N-{1-[(4S)-7-(3,5-dimethylisoxazol-4-yl)-4-pyridin-2-yl-4,5-dihydroimidazo[1,5,4-de][1,4]benzoxazin-2-yl]piperidin-4-yl}-N,2,2-trimethylpropanamide] | < 25 | < 25
Cc1noc(C)c1-c1ccc2nc(N3CCC(N(C)C(=O)C4CC4)CC3)n3c2c1OC[C@@H]3c1ccccn1 [Example 19, N-{1-[(4S)-7-(3,5-dimethylisoxazol-4-yl)-4-pyridin-2-yl-4,5-dihydroimidazo[1,5,4-de][1,4]benzoxazin-2-yl]piperidin-4-yl}-N-methylcyclopropanecarboxamide] | < 25 | < 25
Cc1noc(C)c1-c1ccc2nc(N3CCC(N(C)C(=O)C4CCC4)CC3)n3c2c1OC[C@@H]3c1ccccn1 [Example 20, N-{1-[(4S)-7-(3,5-dimethylisoxazol-4-yl)-4-pyridin-2-yl-4,5-dihydroimidazo[1,5,4-de][1,4]benzoxazin-2-yl]piperidin-4-yl}-N-methylcyclobutanecarboxamide] | < 25 | < 25
CCS(=O)(=O)N(C)C1CCN(c2nc3ccc(-c4c(C)noc4C)c4c3n2[C@@H](c2ccccn2)CO4)CC1 [Example 23, N-{1-[(4S)-7-(3,5-dimethylisoxazol-4-yl)-4-pyridin-2-yl-4,5-dihydroimidazo[1,5,4-de][1,4]benzoxazin-2-yl]piperidin-4-yl}-N-methylethanesulfonamide] | < 25 | < 25
Cc1noc(C)c1-c1ccc2nc(N3CCC(N(C)S(=O)(=O)C4CC4)CC3)n3c2c1OC[C@@H]3c1ccccn1 [Example 24, N-{1-[(4S)-7-(3,5-dimethylisoxazol-4-yl)-4-pyridin-2-yl-4,5-dihydroimidazo[1,5,4-de][1,4]benzoxazin-2-yl]piperidin-4-yl}-N-methylcyclopropanesulfonamide] | < 25 | < 25
CCCC(=O)N1CCN(c2nc3ccc(-c4c(C)noc4C)c4c3n2[C@@H](c2ccccn2)CO4)CC1 [Example 25, (4S)-2-(4-butyrylpiperazin-1-yl)-7-(3,5-dimethylisoxazol-4-yl)-4-pyridin-2-yl-4,5-dihydroimidazo[1,5,4-de][1,4]benzoxazine] | < 25 | < 25
Cc1noc(C)c1-c1ccc2nc(N3CCN(C(=O)C(C)(C)C)CC3)n3c2c1OC[C@@H]3c1ccccn1 [Example 26, (4S)-7-(3,5-dimethylisoxazol-4-yl)-2-[4-(2,2-dimethylpropanoyl)piperazin-1-yl]-4-pyridin-2-yl-4,5-dihydroimidazo[1,5,4-de][1,4]benzoxazine] | < 25 | < 25
Cc1noc(C)c1-c1ccc2nc(N3CCN(C(=O)C4CCC4)CC3)n3c2c1OC[C@@H]3c1ccccn1 [Example 28, (4S)-2-[4-(cyclobutylcarbonyl)piperazin-1-yl]-7-(3,5-dimethylisoxazol-4-yl)-4-pyridin-2-yl-4,5-dihydroimidazo[1,5,4-de][1,4]benzoxazine] | < 25 | < 25
COCC(=O)N1CCN(c2nc3ccc(-c4c(C)noc4C)c4c3n2[C@@H](c2ccccn2)CO4)CC1 [Example 29, (4S)-7-(3,5-dimethylisoxazol-4-yl)-2-[4-(methoxyacetyl)piperazin-1-yl]-4-pyridin-2-yl-4,5-dihydroimidazo[1,5,4-de][1,4]benzoxazine] | < 25 | < 25
